Laboratory results reported in patent US9040524B2, “Antifungal 5,6-dihydro-4H-pyrrolo[1,2-a][1,4]-benzodiazepines and 6H-pyrrolo[1,2-a][1,4]benzodiazepines substituted with bicycle benzene derivatives” (JANSSEN PHARMACEUTICA NV, priority 2010, dated 2015).

Columns and labels:
Type in all cases: cell-based
Microsporum canis = assay: Antifungal activity in vitro, resazurin growth inhibition screen: Microsporum canis; details: Microsporum canis B68128
Procedure: (§1) The standard susceptibility screen was performed in 96-well plates (U-bottom, Greiner Bio-One). Serial dilutions (2-fold or 4-fold) of 20 mM compound stock solutions were made in 100% DMSO, followed by an intermediate dilution step in water. These serial dilutions (10 μl) were then spotted onto test-plates that could be stored in the dark at 4° C. for a maximum period of 2 weeks. An adequate broad dose-range was included with 64 μM as the highest in-test concentration. […] The different fungal species/isolates (Table 3a) were cryopreserved and 1/1000 diluted in medium just prior to use. A standard inoculum of 200 μl containing 10^3 colony-forming unit (cfu) was then added to each well. A positive control (100% growth=fungal culture without antifungal) and a negative control (0% growth=RPMI-MOPS medium) were included on each plate.

[1] = test system: Trichophyton mentagrophytes; assay: Antifungal activity in vitro, resazurin growth inhibition screen: Trichophyton mentagrophytes; details: Trichophyton mentagrophytes B70554
Procedure: as §1

Trichophyton rubrum = assay: Antifungal activity in vitro, resazurin growth inhibition screen: Trichophyton rubrum; details: Trichophyton rubrum B68183
Procedure: as §1

Sporothrix schenkii = assay: Antifungal activity in vitro, resazurin growth inhibition screen: Sporothrix schenkii; details: Sporothrix schenkii B62482
Procedure: as §1

Aspergillus fumigatus = assay: Antifungal activity in vitro, resazurin growth inhibition screen: Aspergillus fumigatus; details: Aspergillus fumigatus B42928
Procedure: as §1

Candida parapsilosis = assay: Antifungal activity in vitro, resazurin growth inhibition screen: Candida parapsilosis; details: Candida parapsilosis B66126
Procedure: as §1

Cryptococcus neoformans = assay: Antifungal activity in vitro, resazurin growth inhibition screen: Cryptococcus neoformans; details: Cryptococcus neoformans B66663
Procedure: as §1

Structure (SMILES) | Inf. B pIC50 (Microsporum canis) | Inf. G pIC50 [1] | Inf. C pIC50 (Trichophyton rubrum) | Inf. A pIC50 (Sporothrix schenkii) | Inf. E pIC50 (Aspergillus fumigatus) | Inf. D pIC50 (Candida parapsilosis) | Inf. F pIC50 (Cryptococcus neoformans)
Cl.Clc1ccc(Cl)c2c1CNC(c1ccc3c(c1)CCC3)c1cccn1-2 (stereo not drawn) [Compound 16, 7,10-dichloro-4-(2,3-dihydro-1H-inden-5-yl)-5,6-dihydro-4H-pyrrolo[1,2-a][1,4]-benzodiazepine .HCl] | 5.00 | 4.52 | 5.40 | <4.19 | <4.19 | <4.19 | <4.19
Cl.Clc1cc(Cl)c2c(c1)CNC(c1ccc3c(c1)CCC3)c1cccn1-2 (stereo not drawn) [Compound 17, 8,10-dichloro-4-(2,3-dihydro-1H-inden-5-yl)-5,6-dihydro-4H-pyrrolo[1,2-a][1,4]-benzodiazepine .HCl] | <4.19 | 4.71 | 5.70 | <4.19 | 5.46 | <4.19 | <4.19
Cl.Clc1ccc2c(c1Cl)CNC(c1ccc3c(c1)CCC3)c1cccn1-2 (stereo not drawn) [Compound 18, 7,8-dichloro-4-(2,3-dihydro-1H-inden-5-yl)-5,6-dihydro-4H-pyrrolo[1,2-a][1,4]-benzodiazepine .HCl] | 4.62 | 5.26 | 5.70 | <4.19 | 4.67 | <4.19 | <4.19
Cl.Clc1cc(Cl)c2c(c1)-n1cccc1C(c1ccc3c(c1)CCC3)NC2 (stereo not drawn) [Compound 19, 7,9-dichloro-4-(2,3-dihydro-1H-inden-5-yl)-5,6-dihydro-4H-pyrrolo[1,2-a][1,4]-benzodiazepine .HCl] | 5.40 | 5.63 | 6.00 | <4.19 | 4.96 | <4.19 | 5.70
Cl.Clc1cccc2c1CNC(c1ccc3c(c1)CCO3)c1cccn1-2 (stereo not drawn) [Compound 26, 7-chloro-4-(2,3-dihydro-5-benzofuranyl)-5,6-dihydro-4H-pyrrolo[1,2-a][1,4]benzo-diazepine .HCl] | 6.00 | 5.70 | 6.25 | <4.19 | 4.85 | 4.25 | <4.19
Cl.Clc1cccc2c1CNC(c1ccc3c(c1)OCC3)c1cccn1-2 (stereo not drawn) [Compound 27, 7-chloro-4-(2,3-dihydro-6-benzofuranyl)-5,6-dihydro-4H-pyrrolo[1,2-a][1,4]benzo-diazepine .HCl] | 5.15 | 4.96 | 6.32 | <4.19 | <4.19 | <4.19 | <4.19
Cl.Fc1cccc2c1CNC(c1ccc3c(c1)CCOC3)c1cccn1-2 (stereo not drawn) [Compound 29, 4-(3,4-dihydro-1H-2-benzopyran-6-yl)-7-fluoro-5,6-dihydro-4H-pyrrolo[1,2-a]-[1,4]benzodiazepine .HCl] | <4.19 | <4.19 | 4.44 | <4.19 | <4.19 | <4.19 | <4.19
Cl.Clc1ccc2c(c1Cl)CNC(c1ccc3c(c1)CCO3)c1cccn1-2 (stereo not drawn) [Compound 30, 7,8-dichloro-4-(2,3-dihydro-5-benzofuranyl)-5,6-dihydro-4H-pyrrolo[1,2-a][1,4]-benzodiazepine .HCl] | 6.00 | 5.00 | 5.22 | <4.19 | <4.19 | <4.19 | 5.22
Cl.Clc1cc(Cl)c2c(c1)-n1cccc1C(c1ccc3c(c1)CCO3)NC2 (stereo not drawn) [Compound 31, 7,9-dichloro-4-(2,3-dihydro-5-benzofuranyl)-5,6-dihydro-4H-pyrrolo[1,2-a][1,4]-benzodiazepine .HCl] | 5.52 | 5.80 | 6.00 | <4.19 | <4.19 | <4.19 | <4.19
Br.COc1cc2c(cc1C1NCc3c(Cl)cccc3-n3cccc31)OC(C)C2 (stereo not drawn) [Compound 49, 7-chloro-4-(2,3-dihydro-5-methoxy-2-methyl-6-benzofuranyl)-5,6-dihydro-4H-pyrrolo[1,2-a][1,4]benzodiazepine .HBr] | 5.05 | – | 5.10 | <4.19 | <4.19 | <4.19 | 4.34
